Results published in ChEMBL document CHEMBL4765272, “Design, synthesis and biological evaluation of tyrosine derivatives as Mcl-1 inhibitors” (Eur J Med Chem, 2020).
Activity calls are given as the source filed them. The calls are words filed in the database; no cut-off is given here.

How the values were obtained:
[1] = Induction of apoptosis in human KM3 cells assessed as late apoptotic cells at 10 uM measured after 48 hrs by Annexin V-FITC/propidium iodide staining based flow cytometry (reference value: 1.15%); assay type: functional
[2] = tested on: MOLT-4; experiment: Antiproliferative activity against human MOLT-4 cells incubated for 72 hrs by MTT assay; assay type: functional, cell-based; details: MOLT-4, 72 h
[3] = tested on: HepG2; experiment: Induction of apoptosis in human HepG2 cells measured after 48 hrs by Annexin V-FITC/propidium iodide staining based flow cytometry; assay type: functional, cell-based
[4] = tested on: HepG2; experiment: Induction of apoptosis in human HepG2 cells measured after 48 hrs by TUNEL staining based fluorescence microscopy; assay type: functional, cell-based
[5] = tested on: NCI-H1299; experiment: Antiproliferative activity against human NCI-H1299 cells incubated for 72 hrs by MTT assay; assay type: functional, cell-based; details: NCI-H1299, 72 h
[6] = tested on: HepG2; experiment: Induction of apoptosis in human HepG2 cells assessed as viable cells at 20 uM measured after 48 hrs by Annexin V-FITC/propidium iodide staining based flow cytometry (reference value: 96.84%); assay type: functional; details: read-out: Activity
[7] = tested on: HepG2; experiment: Induction of apoptosis in human HepG2 cells transfected with siMcl-1 at 10 uM measured after 48 hrs by Annexin V-FITC/propidium iodide staining based flow cytometry; assay type: functional, cell-based
[8] = Induction of apoptosis in human KM3 cells assessed as late apoptotic cells at 20 uM measured after 48 hrs by Annexin V-FITC/propidium iodide staining based flow cytometry (reference value: 1.15%); assay type: functional
[9] = tested on: HepG2; experiment: Antiproliferative activity against human HepG2 cells incubated for 72 hrs by MTT assay; assay type: functional, cell-based; details: HepG2, 72 h
[10] = Inhibition of 5-FAM-BH3 peptide binding to human N-terminal GST-tagged BCL-2 (1 to 34 residues)/BCL-XL (29 to 44 residues)/BCL-2 isoform 2 (92 to 207 residues) expressed in Escherichia coli BL21 (DE3) by fluorescence polarization assay
[11] = Induction of apoptosis in human KM3 cells assessed as early apoptotic cells at 20 uM measured after 48 hrs by Annexin V-FITC/propidium iodide staining based flow cytometry (reference value: 2.18%); assay type: functional
[12] = tested on: HepG2; experiment: Induction of apoptosis in human HepG2 cells assessed as early apoptotic cells at 20 uM measured after 48 hrs by Annexin V-FITC/propidium iodide staining based flow cytometry (reference value: 0.71%); assay type: functional
[13] = Antiproliferative activity against human KM3 cells incubated for 72 hrs by MTT assay; assay type: functional, cell-based; details: KM3, 72 h
[14] = tested on: RPMI-8226; experiment: Antiproliferative activity against human RPMI-8226 cells incubated for 72 hrs by MTT assay; assay type: functional, cell-based; details: RPMI-8226, 72 h
[15] = Inhibition of 5-FAM-BH3 peptide binding to N-terminal His8-tagged human MCL-1 (209 to 327 residues)/mouse MCL-1 (152 to 189 residues) expressed in Escherichia coli BL21 (DE3) by fluorescence polarization assay
[16] = tested on: HepG2; experiment: Induction of apoptosis in human HepG2 cells assessed as early apoptotic cells at 10 uM measured after 48 hrs by Annexin V-FITC/propidium iodide staining based flow cytometry (reference value: 0.71%); assay type: functional
[17] = tested on: KM3; experiment: Induction of apoptosis in human KM3 cells measured after 48 hrs by Annexin V-FITC/propidium iodide staining based flow cytometry; assay type: functional, cell-based
[18] = Induction of apoptosis in human KM3 cells assessed as viable cells at 10 uM measured after 48 hrs by Annexin V-FITC/propidium iodide staining based flow cytometry (reference value: 96.24%); assay type: functional; details: read-out: Activity
[19] = tested on: HepG2; experiment: Induction of apoptosis in human HepG2 cells assessed as late apoptotic cells at 10 uM measured after 48 hrs by Annexin V-FITC/propidium iodide staining based flow cytometry (reference value: 1.93%); assay type: functional
[20] = molecular target: Bcl-2-like protein 1 (Homo sapiens) (UniProt Q07817); experiment: Inhibition of 5-FAM-BH3 peptide binding to human N-terminal GST-tagged BCL-XL (1 to 212 residues) expressed in Escherichia coli BL21 (DE3) at 100 uM by fluorescence polarization assay relative to control
[21] = tested on: HepG2; experiment: Induction of apoptosis in human HepG2 cells assessed as late apoptotic cells at 20 uM measured after 48 hrs by Annexin V-FITC/propidium iodide staining based flow cytometry (reference value: 1.93%); assay type: functional
[22] = tested on: Jurkat; experiment: Antiproliferative activity against human Jurkat cells incubated for 72 hrs by MTT assay; assay type: functional, cell-based
[23] = Induction of apoptosis in human KM3 cells assessed as necrotic cells at 10 uM measured after 48 hrs by Annexin V-FITC/propidium iodide staining based flow cytometry (reference value: 0.42%); assay type: functional
[24] = Induction of apoptosis in human KM3 cells assessed as viable cells at 20 uM measured after 48 hrs by Annexin V-FITC/propidium iodide staining based flow cytometry (reference value: 96.24%); assay type: functional; details: read-out: Activity
[25] = Induction of apoptosis in human KM3 cells assessed as early apoptotic cells at 10 uM measured after 48 hrs by Annexin V-FITC/propidium iodide staining based flow cytometry (reference value: 2.18%); assay type: functional
[26] = tested on: HepG2; experiment: Induction of apoptosis in human HepG2 cells assessed as necrotic cells at 20 uM measured after 48 hrs by Annexin V-FITC/propidium iodide staining based flow cytometry (reference value: 0.52%); assay type: functional
[27] = tested on: HepG2; experiment: Induction of apoptosis in human HepG2 cells assessed as viable cells at 10 uM measured after 48 hrs by Annexin V-FITC/propidium iodide staining based flow cytometry (reference value: 96.84%); assay type: functional; details: read-out: Activity
[28] = tested on: PC-3; experiment: Antiproliferative activity against human PC-3 cells incubated for 72 hrs by MTT assay; assay type: functional, cell-based; details: PC-3, 72 h
[29] = Induction of apoptosis in human KM3 cells assessed as necrotic cells at 20 uM measured after 48 hrs by Annexin V-FITC/propidium iodide staining based flow cytometry (reference value: 0.42%); assay type: functional
[30] = tested on: HepG2; experiment: Induction of apoptosis in human HepG2 cells assessed as necrotic cells at 10 uM measured after 48 hrs by Annexin V-FITC/propidium iodide staining based flow cytometry (reference value: 0.52%); assay type: functional
[31] = species on record: Homo sapiens; experiment: Inhibition of 5-FAM-BH3 peptide binding to human N-terminal GST-tagged BCL-2 (1 to 34 residues)/BCL-XL (29 to 44 residues)/BCL-2 isoform 2 (92 to 207 residues) expressed in Escherichia coli BL21 (DE3) at 100 uM by fluorescence polarization assay relative to control
[32] = tested on: HepG2; experiment: Induction of apoptosis in human HepG2 cells at 10 to 20 uM measured after 48 hrs by TUNEL staining based fluorescence microscopy; assay type: functional, cell-based; details: dose 10-20 µM

Chain of Bcl-2-like protein 1 (Homo sapiens) (Q07817 whole entry, the tested form may be a part): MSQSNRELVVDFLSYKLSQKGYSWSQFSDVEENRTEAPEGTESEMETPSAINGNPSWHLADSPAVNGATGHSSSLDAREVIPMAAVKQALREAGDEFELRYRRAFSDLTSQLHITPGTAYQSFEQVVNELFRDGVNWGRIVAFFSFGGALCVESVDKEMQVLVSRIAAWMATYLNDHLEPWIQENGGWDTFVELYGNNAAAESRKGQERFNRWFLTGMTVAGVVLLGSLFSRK

With `Cc1cc(OCCCOc2ccc(C[C@H](NC(=O)OC(C)(C)C)C(=O)NS(=O)(=O)c3ccc(NCCCc4ccccc4)c([N+](=O)[O-])c3)cc2)cc(C)c1Cl` the Activity [1] was 4.94%, the IC50 [2] was 17.4 µM and the Activity [3] was “Dose-dependent effect”. For the same molecule, the Activity [4] was “Dose-dependent effect”, the IC50 [5] was 20.7 µM and the viability at 20 µM [6] was 15.4%. The Activity [7] was “inactive”, the Activity [8] was 64.31% and the IC50 [9] was 6.42 µM. It also gave a Ki [10] of 1.1 µM, an Activity [11] of 20.71% and an Activity [12] of 3.4%. For the same molecule, the IC50 [13] was 8.25 µM, the IC50 [14] was 6.34 µM and the Ki [15] was 0.18 µM. For the same molecule, the Activity [16] was 2.24%, the Activity [17] was “Dose-dependent effect” and the viability at 10 µM [18] was 82.3%. For the same molecule, the Activity [19] was 7.18%, the inhibition [20] was > 50% and the Activity [21] was 78.54%. The IC50 [22] was 15.1 µM, the Activity [23] was 0.66% and the viability at 20 µM [24] was 12.9%. For the same molecule, the Activity [25] was 12.11%, the Activity [26] was 2.64% and the viability at 10 µM [27] was 88.6%. It also gave an IC50 [28] of 15.8 µM, an Activity [29] of 2.09% and an Activity [30] of 2.02%.
In the case of `Cc1ccc(CC(=O)N[C@@H](Cc2cc(Br)c(OCCOc3cccc4ccccc34)c(Br)c2)C(=O)NS(=O)(=O)c2ccc(NCCCc3ccccc3)c([N+](=O)[O-])c2)cc1`, the Activity [1] is reported as 4.31%, the IC50 [2] is reported as 17.7 µM and the Activity [3] is reported as “Dose-dependent effect”. The Activity [4] was “Dose-dependent effect”, the IC50 [5] was 21.6 µM and the viability at 20 µM [6] was 15.6%. For the same molecule, the Activity [7] was “inactive”, the Activity [8] was 74.52% and the IC50 [9] was 7.5 µM. It also gave an Activity [11] of 16.21%, an Activity [12] of 2.38% and an IC50 [13] of 11.5 µM. For the same molecule, the IC50 [14] was 7.67 µM, the Ki [15] was 0.23 µM and the Activity [16] was 2.44%. The Activity [17] was “Dose-dependent effect”, the viability at 10 µM [18] was 84.5% and the Activity [19] was 9.03%. The inhibition [20] was > 50%, the Activity [21] was 80.03% and the IC50 [22] was 16.5 µM. For the same molecule, the Activity [23] was 0.73%, the viability at 20 µM [24] was 8.34% and the Activity [25] was 10.47%. It also gave an Activity [26] of 2.04%, a viability at 10 µM [27] of 85.9% and an IC50 [28] of 18.9 µM. The inhibition [31] was > 50%, the Activity [29] was 0.93% and the Activity [30] was 2.63%.
In the case of `O=C(O)CSc1cc(NS(=O)(=O)c2ccc(Br)cc2)c2ccccc2c1O`, the Activity [1] is reported as 11.64%, the IC50 [2] is reported as 3.14 µM and the IC50 [5] is reported as 6.08 µM. It also gave a viability at 20 µM [6] of 11%, an Activity [8] of 34.2% and an IC50 [9] of 11.4 µM. It also gave a Ki [10] of 11 µM, an Activity [11] of 40.5% and an Activity [12] of 2.44%. It also gave an IC50 [13] of 11.2 µM, an IC50 [14] of 5.77 µM and a Ki [15] of 0.21 µM. It also gave an Activity [16] of 2.23%, a viability at 10 µM [18] of 72.7% and an Activity [19] of 20.03%. The inhibition [20] was > 50%, the Activity [21] was 86.11% and the IC50 [22] was 9.79 µM. The Activity [23] was 0.31%, the Activity [32] was “Active” and the viability at 20 µM [24] was 23.8%. The Activity [25] was 15.35%, the Activity [26] was 0.45% and the viability at 10 µM [27] was 76.4%. It also gave an IC50 [28] of 8.43 µM, an Activity [29] of 1.52% and an Activity [30] of 1.36%.
